The values below come from patent publication US8501786B2, “Hydroxymethyl pyrrolidines as beta 3 adrenergic receptor agonists” (Merck Sharp & Dohme Corp., priority 2009, dated 2013).

Structures can show the parent of a compound that is named as a salt.

T1 sequence (P13945 whole entry): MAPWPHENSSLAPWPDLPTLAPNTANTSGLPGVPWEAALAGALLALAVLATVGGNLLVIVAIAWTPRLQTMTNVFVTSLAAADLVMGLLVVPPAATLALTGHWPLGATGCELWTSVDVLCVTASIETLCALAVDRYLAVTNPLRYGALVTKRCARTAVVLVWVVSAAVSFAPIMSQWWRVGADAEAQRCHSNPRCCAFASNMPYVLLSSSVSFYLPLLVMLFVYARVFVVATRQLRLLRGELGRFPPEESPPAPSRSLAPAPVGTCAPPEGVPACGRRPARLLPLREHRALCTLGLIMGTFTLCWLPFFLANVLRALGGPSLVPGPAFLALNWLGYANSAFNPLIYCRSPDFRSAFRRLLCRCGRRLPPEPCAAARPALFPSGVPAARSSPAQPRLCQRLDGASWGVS

One assay has as its target T1, human β3 adrenergic receptor (Homo sapiens, UniProt P13945).
T1 construct: stably transfected with the cloned β-adrenergic receptor (β1, β2 or β3); expressed in transfected cells; host or cells: Chinese hamster ovary (CHO) cells, stably transfected
Briefly: Functional assay: cAMP production (LANCE TR-FRET) in CHO cells stably transfected with cloned β3 adrenergic receptor. As to conditions: Table 2; cAMP production, CHO cells expressing human β3 AR; read-out: Human β3 functional. The format is cell-based. On the procedure:
Functional Assay: cAMP production in response to ligand is measured according to Barton, et al. (1991, Agonist-induced desensitization of D2 dopamine receptors in human Y-79 retinoblastoma cells. Mol. Pharmacal. v3229:650-658) modified as follows, cAMP production is measured using a homogenous time-resolved fluorescence resonance energy transfer immunoassay (LANCE™, Perkin Elmer) according to the manufacture's instructions. Chinese hamster ovary (CHO) cells, stably transfected with the cloned β-adrenergic receptor (β1, β2 or β3) are harvested after 3 days of subculturing. Harvesting of cells is done with Enzyme-free Dissociation Media (Specialty Media). Cells are then counted and resuspended in assay buffer (Hank's Balanced salt solution supplemented with 5 mM HEPES, […]) containing a phosphodiesterase inhibitor (IBMX, 0.6 mM). The reaction is initiated by mixing 6,000 cells in 6 μL with 6 μL Alexa Fluor labeled cAMP antibody (LANCE™ kit) which is then added to an assay well containing 12 μL of compound (diluted in assay buffer to 2× final concentration). The reaction proceeds for 30 min at room temperature and is terminated by the addition of 24 ul detection buffer (LANCE™ kit). The assay plate is then incubated for 1 h at room temperature and time-resolved fluorescence measured on a Perkin Elmer Envision reader or equivalent. The unknown cAMP level is determined by comparing fluorescence levels to a cAMP standard curve.
The non-selective, full agonist β-adrenergic ligand isoproterenol is used at all three receptors to determine maximal stimulation. The human β3 adrenergic receptor (AR) selective ligand (S)-N-[4-[2-[[2-hydroxy-3-(4-hydroxyphenoxy)propyl]amino]ethyl]-phenyl]-4-iodobenzenesulfonamide is used as a control in all assays. Isoproterenol is titrated at a final concentration in the assay of 10^-10 M to 10-5 and the selective ligand (S)-N-[4-[2-[[2-hydroxy-3-(4-hydroxyphenoxy)propyl]amino]ethyl]phenyl]-4-iodobenzenesulfonamide is titrated at the β3 receptor at concentration of 10^-10 M to 10^-5 M. Unknown ligands are titrated at all 3 β-adrenergic receptor subtypes at a final concentration in the assay of 10^-10 M to 10^-5 M to determine the EC50. The EC50 is defined as the concentration of compound that gives 50% activation of its own maximum. Data are analyzed using Microsoft Excel and Graphpad Prism or an internally developed data analysis software package.
A general note: Changes in cAMP serve as a functional read-out for many G protein-coupled receptors.
As to `Nc1nc(CC(=O)Nc2ccc(CC3CC[C@H]([C@H](O)c4cccnc4)N3)cc2)cs1` (stereo partly shown) [Example 3], the EC50 fell in the range of 1 to 10 nM. The same measure, in the same setting: next, `O=C(CN1CCOC1=O)Nc1ccc(CC2CC[C@H]([C@H](O)c3cccnc3)N2)cc1` (stereo partly shown) [Example 44]: 11 to 100 nM; `O=C(Cn1cnccc1=O)Nc1ccc(CC2CC[C@H]([C@H](O)c3cccnc3)N2)cc1` (stereo partly shown) [Example 53]: 1 to 10 nM.

Regarding `O=C(Cc1c[nH]c2ccccc12)Nc1ccc(CC2CC[C@H]([C@H](O)c3cccnc3)N2)cc1` (stereo partly shown) [Example 19], the EC50 was in the range of 1 to 10 nM.

Take `O=C(Cn1nc(Cc2ccccc2)c2ccccc2c1=O)Nc1ccc(CC2CC[C@H]([C@H](O)c3cccnc3)N2)cc1` (stereo partly shown) [Example 8]: the EC50 was in the range of 1 to 10 nM. Regarding `O=C(Cn1nccn1)Nc1ccc(CC2CC[C@H]([C@H](O)c3cccnc3)N2)cc1` (stereo partly shown) [Example 39], the EC50 lay within 11 to 100 nM. The same measure, in the same setting: next, `Cn1ncc2ncn(CC(=O)Nc3ccc(CC4CC[C@H]([C@H](O)c5cccnc5)N4)cc3)c(=O)c21` (stereo partly shown) [Example 76]: 1 to 10 nM; `O=C(Cc1nc2ccccc2[nH]1)Nc1ccc(CC2CC[C@H]([C@H](O)c3cccnc3)N2)cc1` (stereo partly shown) [Example 17]: 11 to 100 nM; `O=C(Cc1csc(=S)[nH]1)Nc1ccc(CC2CC[C@H]([C@H](O)c3cccnc3)N2)cc1` (stereo partly shown) [Example 74]: 11 to 100 nM.

Consider `O=C(Cc1nnn[nH]1)Nc1ccc(CC2CC[C@H]([C@H](O)c3cccnc3)N2)cc1` (stereo partly shown) [Example 55], for which the EC50 is 11 to 100 nM. Still for that read-out and setting: in the case of `O=C(Cc1nnc(Cc2ccccc2)[nH]1)Nc1ccc(CC2CC[C@H]([C@H](O)c3cccnc3)N2)cc1` (stereo partly shown) [Example 26] it was 11 to 100 nM; in that of `O=C(Cn1ncccc1=O)Nc1ccc(CC2CC[C@H]([C@H](O)c3cccnc3)N2)cc1` (stereo partly shown) [Example 52], 1 to 10 nM; in that of `O=C(Cn1cncn1)Nc1ccc(CC2CC[C@H]([C@H](O)c3cccnc3)N2)cc1` (stereo partly shown) [Example 38], 11 to 100 nM. Consider `O=C(CN1CCSC1=O)Nc1ccc(CC2CC[C@H]([C@H](O)c3cccnc3)N2)cc1` (stereo partly shown) [Example 45], for which the EC50 was 1 to 10 nM. `O=C(Cn1cc2ccccc2n1)Nc1ccc(CC2CC[C@H]([C@H](O)c3cccnc3)N2)cc1` (stereo partly shown) [Example 6]: the EC50 lay in the range of 11 to 100 nM. The same measure, in the same setting: in the case of `O=C(Cn1c(=O)ncc2ccccc21)Nc1ccc(CC2CC[C@H]([C@H](O)c3cccnc3)N2)cc1` (stereo partly shown) [Example 13] it was 1 to 10 nM.

The same assay, now with this note: Table 3; cAMP production, CHO cells expressing human β3 AR; read-out: Human β3 functional.
Take `CC(C(=O)Nc1ccc(CC2CC[C@H]([C@H](O)c3cccnc3)N2)cc1)n1cc(C(=O)O)nn1` (single isomer, unassigned) [Example 198]: the EC50 is 11 to 100 nM. Same read-out and setting: in the case of `COC(=O)c1cnnn1C(C)C(=O)Nc1ccc(CC2CC[C@H]([C@H](O)c3cccnc3)N2)cc1` (single isomer, unassigned) [Example 208] it was 1 to 10 nM; in that of `CCC(C(=O)Nc1ccc(CC2CC[C@H]([C@H](O)c3cccnc3)N2)cc1)n1cccn1` (single isomer, unassigned) [Example 184], 1 to 10 nM; in that of `CC(C(=O)Nc1ccc(CC2CC[C@H]([C@H](O)c3cccnc3)N2)cc1)c1nnn(C)n1` (single isomer, unassigned) [Example 180], 11 to 100 nM. On the same count and under the same terms, next, `CCC(C(=O)Nc1ccc(CC2CC[C@H]([C@H](O)c3cccnc3)N2)cc1)n1cccn1` (single isomer, unassigned) [Example 185]: 1 to 10 nM.

For the compound `CCC(C(=O)Nc1ccc(CC2CC[C@H]([C@H](O)c3cccnc3)N2)cc1)c1cscn1` (single isomer, unassigned) [Example 205], the EC50 fell in the range of 11 to 100 nM.

Consider `Cc1[nH]nc2c1CCC2C(=O)Nc1ccc(CC2CC[C@H]([C@H](O)c3cccnc3)N2)cc1` (single isomer, unassigned) [Example 154], for which the EC50 is 1 to 10 nM.

In the case of `CC(F)(C(=O)Nc1ccc(CC2CC[C@H]([C@H](O)c3cccnc3)N2)cc1)c1ccccn1` (single isomer, unassigned) [Example 147], the EC50 lay in the range of 101 to 1000 nM. As to `Cc1cn(C(C)C(=O)Nc2ccc(CC3CC[C@H]([C@H](O)c4cccnc4)N3)cc2)nn1` (single isomer, unassigned) [Example 211], the EC50 is 11 to 100 nM. On the same count and under the same terms, next, `CC(C(=O)Nc1ccc(CC2CC[C@H]([C@H](O)c3cccnc3)N2)cc1)n1nncc1C(=O)O` (single isomer, unassigned) [Example 207]: 11 to 100 nM; `Cc1ccn(C(C)C(=O)Nc2ccc(CC3CC[C@H]([C@H](O)c4cccnc4)N3)cc2)n1` (single isomer, unassigned) [Example 100]: 1000 to 3000 nM. Consider `CC(C(=O)Nc1ccc(CC2CC[C@H]([C@H](O)c3cccnc3)N2)cc1)c1csc(C(F)(F)F)n1` (single isomer, unassigned) [Example 112], for which the EC50 was in the range of 101 to 1000 nM.

With `Cc1nc2c(s1)CCC2C(=O)Nc1ccc(CC2CC[C@H]([C@H](O)c3cccnc3)N2)cc1` (single isomer, unassigned) [Example 116], the EC50 fell in the range of 101 to 1000 nM. On to `O=C1CC[C@@H](C(=O)Nc2ccc(CC3CC[C@H]([C@H](O)c4cccnc4)N3)cc2)N1` (single isomer, unassigned) [Example 197], for which the EC50 was 101 to 1000 nM. Consider `Cc1nnc2n1CCC2C(=O)Nc1ccc(CC2CC[C@H]([C@H](O)c3cccnc3)N2)cc1` (single isomer, unassigned) [Example 170], for which the EC50 lay within 11 to 100 nM. For `COC(=O)c1cnnn1C(C)C(=O)Nc1ccc(CC2CC[C@H]([C@H](O)c3cccnc3)N2)cc1` (single isomer, unassigned) [Example 209], the EC50 lay in the range of 101 to 1000 nM.

The same assay, now with this note: Table 4; cAMP production, CHO cells expressing human β3 AR; read-out: Human β3 functional.
On to `O=S(=O)(Nc1ccc(CC2CC[C@H]([C@H](O)c3cccnc3)N2)cc1)c1ccc2ncsc2c1` (stereo partly shown) [Example 231], for which the EC50 lay in the range of 101 to 1000 nM. The same measure, in the same setting: next, `O=S(=O)(Nc1ccc(CC2CC[C@H]([C@H](O)c3cccnc3)N2)cc1)c1ccc(-c2cnco2)cc1` (stereo partly shown) [Example 232]: 11 to 100 nM.

Still in this assay, the particulars now being: Table 5; human β3 functional activity given as ranges; read-out: Human β3 functional.
With `O=C(Nc1ccc(CC2CC[C@H]([C@H](O)c3cccnc3)N2)cc1Br)C1CCc2sc(I)nc21` (single isomer, unassigned) [Example 244], the EC50 was in the range of 11 to 100 nM.

Still in this assay, the particulars now being: Table 6; human β3 functional activity given as ranges; read-out: Human β3 functional.
`CC(NC(=O)c1c(F)cccc1F)C(=O)Nc1ccc(C[C@@H]2CC[C@H]([C@H](O)c3cccnc3)N2)cc1` (stereo partly shown) [Example 250]: the EC50 is under 1 nM.

Take `CC(N)C(=O)Nc1ccc(C[C@@H]2CC[C@H]([C@H](O)c3cccnc3)N2)cc1` (stereo partly shown) [Example 254]: the EC50 was in the range of 11 to 100 nM.

Consider `CC(NC(=O)c1ccccc1)C(=O)Nc1ccc(C[C@@H]2CC[C@H]([C@H](O)c3cccnc3)N2)cc1` (stereo partly shown) [Example 260], for which the EC50 is under 1 nM.

The assay is the same for the next values; noted with them: cAMP production, CHO cells expressing human β3 AR; read-out: human Beta-3 agonist functional activity.
As to `Nc1nc(CC(=O)Nc2ccc(C[C@@H]3CC[C@H]([C@H](O)c4cccnc4)N3)cc2)cs1` [Example 1, 2-2-Amino-1,3-thiazol-4-yl)-N-[4-({(2S,5R)-5-[(R)-hydroxy(pyridin-3-yl)methyl]pyrrolidin-2-yl}methyl)phenyl]acetamide, trfluoroacetic acid salt], the EC50 was under 10 nM.

With `C[C@@H](C(=O)Nc1ccc(C[C@@H]2CC[C@H]([C@H](O)c3cccnc3)N2)cc1)n1ccccc1=O` (single isomer, unassigned) [Example 95], the EC50 is under 10 nM. Turning to `O=C(CN1CCCC1=O)Nc1ccc(C[C@@H]2CC[C@H]([C@H](O)c3cccnc3)N2)cc1` [Example 2, N-[4-({(2S,5R)-5-[(R)-Hydroxy(pyridin-3-yl)methyl]pyrrolidin-2-yl}methyl)phenyl]-2-(2-oxopyrrolidin-1-yl)acetamide, trfluoroacetic acid salt], the EC50 is under 100 nM. For `C[C@H](NC(=O)c1ccccc1F)C(=O)Nc1ccc(C[C@@H]2CC[C@H]([C@H](O)c3cccnc3)N2)cc1` [Example 245, 2-Fluoro-N-((1S)-2-{[4-({(2S,5R)-5-[(R)-hydroxy(pyridin-3-yl)methyl]pyrrolidin-2-yl}methyl)phenyl]amino}-1-methyl-2-oxoethyl)benzamide, trifluoracetic acid salt], the EC50 was under 1 nM. On to `O=C(Nc1ccc(CC2CCC(C(O)c3cccnc3)N2)cc1Br)C1CCc2sc(Br)nc21` (single isomer, unassigned) [Example 240, (4S or 4R)-2-bromo-N-[2-bromo-4-({(2S,5R)-5-[(R)-hydroxy(pyridin-3-yl)methyl]pyrrolidin-2-yl}methyl)phenyl]-5,6-dihydro-4H-cyclopenta[d][1,3]thiazole-4-carboxamide], for which the EC50 was under 1000 nM.
